{"source": "paper PMC7265341", "about": "“Quantifying CDK inhibitor selectivity in live cells” (Nature Communications, 2020)", "assay_type_in_all_cases": "binding", "key": {"CDK14/Cyclin Y": {"biological_target": "CDK14/Cyclin Y (Homo sapiens, UniProt O94921)", "test": "NanoBRET live-cell target engagement, CDK14-NanoLuc/Cyclin Y in HEK-293", "conditions": "read-out: Inhibition at 10µM (%), CDK14/Y; experiment 2"}, "CDK13/Cyclin K": {"biological_target": "CDK13/Cyclin K (Homo sapiens, UniProt Q14004)", "sequence (O75909 whole entry)": "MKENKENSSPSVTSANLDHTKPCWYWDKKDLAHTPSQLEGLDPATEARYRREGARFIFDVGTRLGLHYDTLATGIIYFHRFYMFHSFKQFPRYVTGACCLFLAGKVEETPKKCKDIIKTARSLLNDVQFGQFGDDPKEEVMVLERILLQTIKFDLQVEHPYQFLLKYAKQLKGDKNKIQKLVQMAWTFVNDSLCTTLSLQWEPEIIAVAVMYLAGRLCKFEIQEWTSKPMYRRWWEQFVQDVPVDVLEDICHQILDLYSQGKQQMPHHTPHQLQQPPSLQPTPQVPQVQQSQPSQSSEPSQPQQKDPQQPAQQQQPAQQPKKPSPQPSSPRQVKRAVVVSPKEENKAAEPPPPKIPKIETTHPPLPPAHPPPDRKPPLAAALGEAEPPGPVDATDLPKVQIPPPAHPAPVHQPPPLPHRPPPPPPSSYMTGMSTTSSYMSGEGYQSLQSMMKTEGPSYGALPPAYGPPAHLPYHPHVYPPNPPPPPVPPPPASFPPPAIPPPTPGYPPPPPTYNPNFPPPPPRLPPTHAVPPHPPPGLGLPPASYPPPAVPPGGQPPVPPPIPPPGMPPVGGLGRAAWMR", "sequence (Q14004 other isoform, or with tags, fused parts or gaps)": "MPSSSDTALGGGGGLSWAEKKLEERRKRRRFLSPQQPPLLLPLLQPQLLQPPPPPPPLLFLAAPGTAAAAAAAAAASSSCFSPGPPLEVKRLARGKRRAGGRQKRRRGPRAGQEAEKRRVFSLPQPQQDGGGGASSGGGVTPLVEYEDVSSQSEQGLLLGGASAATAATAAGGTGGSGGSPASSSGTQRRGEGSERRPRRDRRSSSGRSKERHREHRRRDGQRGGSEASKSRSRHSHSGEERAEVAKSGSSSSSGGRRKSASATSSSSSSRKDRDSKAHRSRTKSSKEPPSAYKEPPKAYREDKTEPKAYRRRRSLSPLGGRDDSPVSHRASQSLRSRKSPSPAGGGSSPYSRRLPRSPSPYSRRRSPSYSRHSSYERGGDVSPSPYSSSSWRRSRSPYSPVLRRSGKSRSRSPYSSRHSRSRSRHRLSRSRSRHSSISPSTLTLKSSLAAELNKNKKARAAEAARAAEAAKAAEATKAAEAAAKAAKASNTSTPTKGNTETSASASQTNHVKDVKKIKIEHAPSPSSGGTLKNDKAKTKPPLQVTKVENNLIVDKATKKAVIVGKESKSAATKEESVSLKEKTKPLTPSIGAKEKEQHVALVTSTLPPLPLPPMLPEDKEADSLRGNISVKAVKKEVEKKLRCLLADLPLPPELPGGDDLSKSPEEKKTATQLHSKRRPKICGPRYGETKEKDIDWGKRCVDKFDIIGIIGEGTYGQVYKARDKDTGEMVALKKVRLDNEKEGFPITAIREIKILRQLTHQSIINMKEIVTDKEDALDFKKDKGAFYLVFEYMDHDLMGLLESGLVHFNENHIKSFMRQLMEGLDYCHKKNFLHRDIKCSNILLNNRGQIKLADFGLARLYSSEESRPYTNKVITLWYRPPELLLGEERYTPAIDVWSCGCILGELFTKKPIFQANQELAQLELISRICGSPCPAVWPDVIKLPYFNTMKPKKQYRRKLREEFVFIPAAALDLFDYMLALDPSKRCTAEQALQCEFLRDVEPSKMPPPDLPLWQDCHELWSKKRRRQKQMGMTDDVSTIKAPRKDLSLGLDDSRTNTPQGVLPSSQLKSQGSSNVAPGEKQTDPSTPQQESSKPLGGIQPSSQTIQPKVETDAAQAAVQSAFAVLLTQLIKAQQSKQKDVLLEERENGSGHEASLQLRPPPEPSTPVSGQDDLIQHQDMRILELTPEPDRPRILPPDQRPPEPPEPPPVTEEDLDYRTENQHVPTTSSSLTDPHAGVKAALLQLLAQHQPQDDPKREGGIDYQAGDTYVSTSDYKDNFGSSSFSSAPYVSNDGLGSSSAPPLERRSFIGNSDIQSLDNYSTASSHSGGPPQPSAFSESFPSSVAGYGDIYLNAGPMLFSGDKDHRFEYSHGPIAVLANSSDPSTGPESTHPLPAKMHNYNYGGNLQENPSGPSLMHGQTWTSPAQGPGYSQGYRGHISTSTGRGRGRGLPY", "test": "NanoBRET live-cell target engagement, CDK13-NanoLuc/Cyclin K in HEK-293", "conditions": "CDK13/K, read-out: Inhibition at 10µM (%)"}, "CDK18/Cyclin Y": {"biological_target": "CDK18/Cyclin Y (Homo sapiens, UniProt Q07002)", "sequence (Q07002 whole entry)": "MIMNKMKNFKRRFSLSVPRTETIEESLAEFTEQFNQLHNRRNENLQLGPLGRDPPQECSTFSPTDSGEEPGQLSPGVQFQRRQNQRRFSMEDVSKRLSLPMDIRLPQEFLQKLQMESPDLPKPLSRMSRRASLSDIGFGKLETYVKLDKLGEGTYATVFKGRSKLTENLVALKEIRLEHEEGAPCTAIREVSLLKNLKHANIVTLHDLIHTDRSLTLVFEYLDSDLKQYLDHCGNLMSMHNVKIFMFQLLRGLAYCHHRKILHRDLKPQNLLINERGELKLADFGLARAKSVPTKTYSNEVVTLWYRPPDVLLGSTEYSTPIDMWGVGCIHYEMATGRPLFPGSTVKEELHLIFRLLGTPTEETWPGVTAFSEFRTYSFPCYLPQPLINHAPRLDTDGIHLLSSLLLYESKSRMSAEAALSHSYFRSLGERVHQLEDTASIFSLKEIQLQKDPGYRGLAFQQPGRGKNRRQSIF", "sequence (Q8ND76 whole entry partner)": "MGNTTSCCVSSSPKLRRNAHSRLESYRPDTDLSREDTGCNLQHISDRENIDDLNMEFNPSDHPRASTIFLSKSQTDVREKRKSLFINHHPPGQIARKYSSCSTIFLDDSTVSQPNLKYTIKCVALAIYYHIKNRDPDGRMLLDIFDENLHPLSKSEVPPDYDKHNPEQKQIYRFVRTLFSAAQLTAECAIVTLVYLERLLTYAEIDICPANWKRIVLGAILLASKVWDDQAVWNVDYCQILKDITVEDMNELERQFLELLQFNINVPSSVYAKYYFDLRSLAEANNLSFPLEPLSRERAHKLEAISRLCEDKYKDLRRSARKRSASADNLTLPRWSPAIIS", "test": "NanoBRET live-cell target engagement, CDK18-NanoLuc/Cyclin Y in HEK-293", "conditions": "read-out: Inhibition at 10µM (%), CDK18/Y"}, "CDK8/Cyclin C": {"biological_target": "CDK8/Cyclin C (Homo sapiens, UniProt P49336)", "test": "NanoBRET live-cell target engagement, NanoLuc-CDK8/Cyclin C in HEK-293", "conditions": "for IC50: CDK8/C; for inhibition at 10 µM: read-out: Inhibition at 10µM (%), CDK8/C"}, "CDK11B/Cyclin L2": {"biological_target": "CDK11B/Cyclin L2 (Homo sapiens, UniProt P21127)", "sequence (P21127 1-782 isoform P21127-2)": "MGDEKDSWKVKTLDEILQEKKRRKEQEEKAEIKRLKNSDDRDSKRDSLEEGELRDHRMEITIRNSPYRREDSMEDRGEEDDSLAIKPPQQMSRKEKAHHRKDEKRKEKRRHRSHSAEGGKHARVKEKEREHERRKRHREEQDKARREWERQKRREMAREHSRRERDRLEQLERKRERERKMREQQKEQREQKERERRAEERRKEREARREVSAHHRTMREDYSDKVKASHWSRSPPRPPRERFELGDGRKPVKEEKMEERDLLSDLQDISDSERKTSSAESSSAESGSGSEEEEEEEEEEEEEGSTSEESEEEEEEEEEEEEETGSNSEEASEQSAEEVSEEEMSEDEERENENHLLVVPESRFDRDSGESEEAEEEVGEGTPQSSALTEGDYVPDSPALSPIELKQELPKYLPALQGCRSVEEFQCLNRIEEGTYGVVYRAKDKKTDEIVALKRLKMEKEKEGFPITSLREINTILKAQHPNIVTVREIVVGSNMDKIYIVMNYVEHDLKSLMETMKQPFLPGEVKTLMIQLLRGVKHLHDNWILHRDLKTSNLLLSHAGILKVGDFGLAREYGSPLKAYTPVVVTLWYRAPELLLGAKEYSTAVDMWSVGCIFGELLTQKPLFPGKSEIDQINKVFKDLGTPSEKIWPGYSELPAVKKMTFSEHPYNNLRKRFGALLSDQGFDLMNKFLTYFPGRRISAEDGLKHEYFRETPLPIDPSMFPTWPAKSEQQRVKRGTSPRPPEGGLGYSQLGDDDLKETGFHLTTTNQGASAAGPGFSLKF", "test": "NanoBRET live-cell target engagement, CDK11B-NanoLuc/Cyclin L2 in HEK-293", "conditions": "read-out: Inhibition at 10µM (%), CDK11b/L2"}, "CDK9/Cyclin K": {"biological_target": "CDK9/Cyclin K (Homo sapiens, UniProt P50750)", "sequence (P50750 whole entry)": "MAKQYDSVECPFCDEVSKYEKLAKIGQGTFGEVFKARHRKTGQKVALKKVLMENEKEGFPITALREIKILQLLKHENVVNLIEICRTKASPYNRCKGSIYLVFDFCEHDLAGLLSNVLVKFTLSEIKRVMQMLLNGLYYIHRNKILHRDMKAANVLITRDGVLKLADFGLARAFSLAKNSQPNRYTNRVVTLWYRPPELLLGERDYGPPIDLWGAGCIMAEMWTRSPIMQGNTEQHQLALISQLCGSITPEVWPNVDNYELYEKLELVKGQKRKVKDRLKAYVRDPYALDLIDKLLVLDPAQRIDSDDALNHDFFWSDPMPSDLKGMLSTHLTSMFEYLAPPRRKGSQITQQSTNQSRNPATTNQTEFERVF", "sequence (O75909 whole entry partner)": "as the sequence (O75909 whole entry) above", "test": "NanoBRET live-cell target engagement, NanoLuc-CDK9/Cyclin K in HEK-293", "conditions": "CDK9/K, read-out: Inhibition at 10µM (%)"}, "CDK2/Cyclin E1": {"biological_target": "CDK2/Cyclin E1 (Homo sapiens, UniProt P24941)", "test": "NanoBRET live-cell target engagement, CDK2-NanoLuc/Cyclin E1 in HEK-293", "conditions": "for inhibition at 10 µM: CDK2/E1, read-out: Inhibition at 10µM (%)"}, "CDK5/CDK5R1": {"biological_target": "CDK5/CDK5R1 (Homo sapiens, UniProt Q00535)", "sequence (Q00535 whole entry)": "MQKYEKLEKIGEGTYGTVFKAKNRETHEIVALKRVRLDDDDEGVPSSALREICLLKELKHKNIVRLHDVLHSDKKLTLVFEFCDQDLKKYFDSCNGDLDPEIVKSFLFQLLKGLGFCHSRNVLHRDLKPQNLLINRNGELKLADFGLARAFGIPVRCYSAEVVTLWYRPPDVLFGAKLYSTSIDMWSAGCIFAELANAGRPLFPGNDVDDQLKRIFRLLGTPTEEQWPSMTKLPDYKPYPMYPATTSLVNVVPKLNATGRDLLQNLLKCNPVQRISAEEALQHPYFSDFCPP", "sequence (Q15078 whole entry partner)": "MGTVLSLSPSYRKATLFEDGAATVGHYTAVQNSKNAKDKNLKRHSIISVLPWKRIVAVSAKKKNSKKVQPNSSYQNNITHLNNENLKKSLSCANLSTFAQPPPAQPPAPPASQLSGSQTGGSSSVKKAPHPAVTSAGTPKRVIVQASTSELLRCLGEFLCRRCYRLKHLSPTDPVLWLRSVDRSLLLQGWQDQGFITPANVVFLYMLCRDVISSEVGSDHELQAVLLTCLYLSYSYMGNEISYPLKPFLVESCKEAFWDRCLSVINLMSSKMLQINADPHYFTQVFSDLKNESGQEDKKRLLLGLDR", "test": "NanoBRET live-cell target engagement, CDK5-NanoLuc/CDK5R1 in HEK-293", "conditions": "CDK5/CDK5R1, read-out: Inhibition at 10µM (%)"}, "[1]": {"conditions": "LOG10([CCT251545 analog]) (LOG10(µM)) 0.045757"}, "[2]": {"conditions": "LOG10([CCT251545 analog]) (LOG10(µM)) 0.522879"}, "[3]": {"conditions": "LOG10([CCT251545 analog]) (LOG10(µM)) 1"}, "[4]": {"conditions": "LOG10([CCT251545 analog]) (LOG10(µM)) -0.43136"}, "[5]": {"conditions": "LOG10([CCT251545 analog]) (LOG10(µM)) -0.90849"}, "[6]": {"conditions": "LOG10([CCT251545 analog]) (LOG10(µM)) -1.38561"}, "[7]": {"conditions": "LOG10([CCT251545 analog]) (LOG10(µM)) -1.86273"}, "[8]": {"conditions": "LOG10([CCT251545 analog]) (LOG10(µM)) -2.33985"}, "[9]": {"conditions": "LOG10([CCT251545 analog]) (LOG10(µM)) -2.81697"}, "[10]": {"conditions": "LOG10([CCT251545 analog]) (LOG10(µM)) -3.29409"}, "[11]": {"conditions": "LOG10([CCT251545 analog]) (LOG10(µM)) -3.77121"}}, "note": "Read-outs that look alike come from different tables or passages of the source."}
{"molecule": "COC1CN(C(=O)c2ccc3c(N)ncc(-c4ccc(-c5cnn(C)c5)cc4)c3n2)C1", "note": "[CCT251545 analog]", "values": [{"measurement": "inhibition at 10 µM", "setting": "CDK14/Cyclin Y", "value": -11, "unit": "%"}, {"measurement": "inhibition at 10 µM", "setting": "CDK13/Cyclin K; average", "value": 6.6, "unit": "%"}, {"measurement": "inhibition at 10 µM", "setting": "CDK13/Cyclin K; experiment 1", "value": 6.4, "unit": "%"}, {"measurement": "inhibition at 10 µM", "setting": "CDK13/Cyclin K; experiment 2", "value": 6.7, "unit": "%"}, {"measurement": "inhibition at 10 µM", "setting": "CDK18/Cyclin Y; average", "value": 0.4, "unit": "%"}, {"measurement": "inhibition at 10 µM", "setting": "CDK18/Cyclin Y; experiment 1", "value": -7.3, "unit": "%"}, {"measurement": "inhibition at 10 µM", "setting": "CDK18/Cyclin Y; experiment 2", "value": 8.1, "unit": "%"}, {"measurement": "IC50", "setting": "CDK8/Cyclin C; IC50 (nM), experiment 1", "value": 2.6, "unit": "nM"}, {"measurement": "IC50", "setting": "CDK8/Cyclin C; IC50 (nM), experiment 2", "value": 2, "unit": "nM"}, {"measurement": "IC50", "setting": "CDK8/Cyclin C; IC50 (nM), experiment 3", "value": 12, "unit": "nM"}, {"measurement": "IC50", "setting": "CDK8/Cyclin C; IC50 for CDK/cyclin complexes, live HEK-293, 2 h, mean ± S.E.M. (n=3) or mean (n=2)", "value": 6, "unit": "nM"}, {"measurement": "CDK8 Occupancy (%)", "setting": "CDK8/Cyclin C; [1]", "value": 92.3464, "unit": "%"}, {"measurement": "CDK8 Occupancy (%)", "setting": "CDK8/Cyclin C; [2]", "value": 91.9478, "unit": "%"}, {"measurement": "CDK8 Occupancy (%)", "setting": "CDK8/Cyclin C; [3]", "value": 84.2411, "unit": "%"}, {"measurement": "CDK8 Occupancy (%)", "setting": "CDK8/Cyclin C; [4]", "value": 91.0176, "unit": "%"}, {"measurement": "CDK8 Occupancy (%)", "setting": "CDK8/Cyclin C; [5]", "value": 91.5491, "unit": "%"}, {"measurement": "CDK8 Occupancy (%)", "setting": "CDK8/Cyclin C; [6]", "value": 90.619, "unit": "%"}, {"measurement": "CDK8 Occupancy (%)", "setting": "CDK8/Cyclin C; [7]", "value": 85.7027, "unit": "%"}, {"measurement": "CDK8 Occupancy (%)", "setting": "CDK8/Cyclin C; [8]", "value": 65.2404, "unit": "%"}, {"measurement": "CDK8 Occupancy (%)", "setting": "CDK8/Cyclin C; [9]", "value": 51.023, "unit": "%"}, {"measurement": "CDK8 Occupancy (%)", "setting": "CDK8/Cyclin C; [10]", "value": 25.2458, "unit": "%"}, {"measurement": "CDK8 Occupancy (%)", "setting": "CDK8/Cyclin C; [11]", "value": 19.9309, "unit": "%"}, {"measurement": "inhibition at 10 µM", "setting": "CDK8/Cyclin C; average", "value": 96, "unit": "%"}, {"measurement": "inhibition at 10 µM", "setting": "CDK8/Cyclin C; experiment 1", "value": 95, "unit": "%"}, {"measurement": "inhibition at 10 µM", "setting": "CDK8/Cyclin C; experiment 2", "value": 96.9, "unit": "%"}, {"measurement": "inhibition at 10 µM", "setting": "CDK11B/Cyclin L2; average", "value": 0.563, "unit": "%"}, {"measurement": "inhibition at 10 µM", "setting": "CDK11B/Cyclin L2; experiment 1", "value": 2.1, "unit": "%"}, {"measurement": "inhibition at 10 µM", "setting": "CDK11B/Cyclin L2; experiment 2", "value": -1, "unit": "%"}, {"measurement": "inhibition at 10 µM", "setting": "CDK9/Cyclin K; average", "value": 7.2, "unit": "%"}, {"measurement": "inhibition at 10 µM", "setting": "CDK9/Cyclin K; experiment 1", "value": 6.8, "unit": "%"}, {"measurement": "inhibition at 10 µM", "setting": "CDK9/Cyclin K; experiment 2", "value": 7.5, "unit": "%"}, {"measurement": "inhibition at 10 µM", "setting": "CDK2/Cyclin E1; average", "value": -18.6, "unit": "%"}, {"measurement": "inhibition at 10 µM", "setting": "CDK2/Cyclin E1; experiment 1", "value": -37.1, "unit": "%"}, {"measurement": "inhibition at 10 µM", "setting": "CDK2/Cyclin E1; experiment 2", "value": -0.0714, "unit": "%"}, {"measurement": "CDK2 Occupancy (%)", "setting": "CDK2/Cyclin E1; [1]", "value": 0.4583, "unit": "%"}, {"measurement": "CDK2 Occupancy (%)", "setting": "CDK2/Cyclin E1; [2]", "value": 13.0609, "unit": "%"}, {"measurement": "CDK2 Occupancy (%)", "setting": "CDK2/Cyclin E1; [3]", "value": 32.3087, "unit": "%"}, {"measurement": "CDK2 Occupancy (%)", "setting": "CDK2/Cyclin E1; [4]", "value": 6.187, "unit": "%"}, {"measurement": "CDK2 Occupancy (%)", "setting": "CDK2/Cyclin E1; [5]", "value": 0, "unit": "%"}, {"measurement": "CDK2 Occupancy (%)", "setting": "CDK2/Cyclin E1; [6]", "value": 0.6874, "unit": "%"}, {"measurement": "CDK2 Occupancy (%)", "setting": "CDK2/Cyclin E1; [7]", "value": 13.5192, "unit": "%"}, {"measurement": "CDK2 Occupancy (%)", "setting": "CDK2/Cyclin E1; [8]", "value": 9.853, "unit": "%"}, {"measurement": "CDK2 Occupancy (%)", "setting": "CDK2/Cyclin E1; [9]", "value": 9.166, "unit": "%"}, {"measurement": "CDK2 Occupancy (%)", "setting": "CDK2/Cyclin E1; [10]", "value": 4.812, "unit": "%"}, {"measurement": "CDK2 Occupancy (%)", "setting": "CDK2/Cyclin E1; [11]", "value": 2.291, "unit": "%"}, {"measurement": "inhibition at 10 µM", "setting": "CDK5/CDK5R1; average", "value": 16.2, "unit": "%"}, {"measurement": "inhibition at 10 µM", "setting": "CDK5/CDK5R1; experiment 1", "value": 17.8, "unit": "%"}, {"measurement": "inhibition at 10 µM", "setting": "CDK5/CDK5R1; experiment 2", "value": 14.5, "unit": "%"}]}
